{"source": "patent US20230341403A1", "about": "“METHODS AND KITS FOR THE DIAGNOSIS OF LUNG CANCER” (priority 2020, published 2023)", "tested_on": "A549 cells transfected with the LARGE portion of the isoform 4 (PC4-5)", "test": "Cell proliferation by CFSE and flow cytometry in transfected A549 cells", "assay_type": "cell-based, human", "conditions": "FIG. 6B; for tumour growth / cancer proliferation in the cells transfected with the \"large\" subunit of the isoform 4: concentration not stated at this place", "method": "Transfections. A549 cells, lung adenocarcinoma, were transfected by means of marketable kits for 72 hours in transient way with the plasmid vectors: 1. PC4-1, miming the whole isoform 1 of the caspase-4; 2. PC4-2, miming CARD+LARGE subunit; 3. PC4-3, miming LARGE+SMALL subunit of the isoform 1; 4. PC4-4, miming LARGE subunit of the isoform 1 and 5. PC4-5, miming LARGE subunit of the isoform 4 of the caspase-4. The cell proliferation was evaluated through method of CFSE (1 μM), analysed by means of flow cytometry. In some experiments, the transfected cells marked with CFSE, were subjected to treatment with two leader compounds (compound 5: COMP-5; compound 6: COMP-6).\nIn order to understand the role of the isoform 4 in the cancer growth, the A549 cells, cells of lung adenocarcinoma, were transfected with specific vectors, containing specific portions of the isoform 1 and isoform 4 as described in FIG. 6A. It was observed that the isoform 4 and 1 are both capable of promoting cancer proliferation when the LARGE subunit is expressed with respect to the other considered structures (FIG. 6A). At last, the cells transfected with the large subunit of the isoform 1 (PC4-4) and 4 (PC4-5) were treated with leading compound with the purpose of verifying a cancer growth decrease."}
{"substance": "Ac-VVDC-NH2 [compound 6]", "values": [{"measurement": "cancer growth of the A549 cells transfected with the LARGE portion of the isoform 4", "setting": "compound at 10 nM, A549 transfected with PC4-5, CFSE flow cytometry", "value": "capable of reducing significantly the cancer growth"}, {"measurement": "tumour growth / cancer proliferation in the cells transfected with the \"large\" subunit of the isoform 4", "value": "can be inhibited"}, {"measurement": "tumour growth / cancer proliferation in the cells transfected with the \"large\" subunit of the isoform 4", "setting": "listed as Ac-VVDC-NH2", "value": "significant decrease in the tumour growth"}]}
